# Laboratory results: PubChem BioAssay AID1963835 (Molecular Pharmacology Branch, DTP, NCI, 2024)
# Tested on: 699152-130-R-J1-PDC complex spheroid viability
# Assay: Anticancer human tumor 699152-130-R-J1-PDC patient-derived pancreatic carcinoma cell line growth inhibition [POLQ]
# Settings: for IC50: curve of first compound; for viability, T/C: stronger effect = lower value
# Method in brief: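 Patient-derived tumour cells were co-cultured with HUVEC and mesenchymal stem cells as multicellular spheroids at 37 °C. They were treated with POLQ inhibitors (novobiocin, ART-558, RP6685) alone or combined with other agents. Top concentrations were at or near clinical Cmax (otherwise 10 microM; SN-38 at 1 microM), decreasing in half-log steps.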
# [1] = second compound 0.0316 µM, first compound 0.0316 µM
# [2] = second compound 0.0316 µM, first compound 0.1 µM
# [3] = second compound 0.0316 µM, first compound 0.316 µM
# [4] = second compound 0.0316 µM, first compound 1 µM
# [5] = second compound 0.1 µM, first compound 0.0316 µM
# [6] = second compound 0.1 µM, first compound 0.1 µM
# [7] = second compound 0.1 µM, first compound 0.316 µM
# [8] = second compound 0.1 µM, first compound 1 µM
# [9] = second compound 0.316 µM, first compound 0.0316 µM
# [10] = second compound 0.316 µM, first compound 0.1 µM
# [11] = second compound 0.316 µM, first compound 0.316 µM
# [12] = second compound 0.316 µM, first compound 1 µM
# [13] = second compound 1 µM, first compound 0.0316 µM
# [14] = second compound 1 µM, first compound 0.1 µM
# [15] = second compound 1 µM, first compound 0.316 µM
# [16] = second compound 1 µM, first compound 1 µM
# [17] = second compound 3.16 µM, first compound 0.0316 µM
# [18] = second compound 3.16 µM, first compound 0.1 µM
# [19] = second compound 3.16 µM, first compound 0.316 µM
# [20] = second compound 3.16 µM, first compound 1 µM
# [21] = second compound 10 µM, first compound 0.0316 µM
# [22] = second compound 10 µM, first compound 0.1 µM
# [23] = second compound 10 µM, first compound 0.316 µM
# [24] = second compound 10 µM, first compound 1 µM
# 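Also: spheroids exposed to agents for 7 days before viability reading.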
# 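For viability, T/C in this document: percent of DMSO vehicle control viability so 100% = vehicle and 0% = no viable signal.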
structure (smiles),measurement,setting,value
COc1cccc(OCCCN)c1-c1cc(Nc2cnc(C#N)cn2)n[nH]1 + COC1C(OC(N)=O)C(O)C(Oc2ccc3c(O)c(NC(=O)c4ccc(O)c(CC=C(C)C)c4)c(=O)oc3c2C)OC1(C)C,IC50,second compound 0.0316 µM,256 nM
same,IC50,second compound 0.1 µM,524 nM
same,IC50,second compound 0.316 µM,495 nM
same,IC50,second compound 1 µM,297 nM
same,IC50,second compound 3.16 µM,> 1000 nM
same,IC50,second compound 10 µM,> 1000 nM
same,"viability, T/C","second compound 0.0316 µM, first compound 0.00316 µM",92.4%
same,"viability, T/C","second compound 0.0316 µM, first compound 0.01 µM",91.4%
same,"viability, T/C",[1],57.9%
same,"viability, T/C",[2],63%
same,"viability, T/C",[3],49.7%
same,"viability, T/C",[4],43%
same,"viability, T/C","second compound 0.1 µM, first compound 0.00316 µM",96.8%
same,"viability, T/C","second compound 0.1 µM, first compound 0.01 µM",89.2%
same,"viability, T/C",[5],70.3%
same,"viability, T/C",[6],58.1%
same,"viability, T/C",[7],50.8%
same,"viability, T/C",[8],48.6%
same,"viability, T/C","second compound 0.316 µM, first compound 0.00316 µM",107%
same,"viability, T/C","second compound 0.316 µM, first compound 0.01 µM",83.1%
same,"viability, T/C",[9],67.3%
same,"viability, T/C",[10],55.2%
same,"viability, T/C",[11],55%
same,"viability, T/C",[12],46.1%
same,"viability, T/C","second compound 1 µM, first compound 0.00316 µM",93.7%
same,"viability, T/C","second compound 1 µM, first compound 0.01 µM",83.2%
same,"viability, T/C",[13],69.2%
same,"viability, T/C",[14],52.3%
same,"viability, T/C",[15],48.4%
same,"viability, T/C",[16],50.8%
same,"viability, T/C","second compound 3.16 µM, first compound 0.00316 µM",107%
same,"viability, T/C","second compound 3.16 µM, first compound 0.01 µM",78.2%
same,"viability, T/C",[17],60.7%
same,"viability, T/C",[18],54.8%
same,"viability, T/C",[19],57.5%
same,"viability, T/C",[20],48.8%
same,"viability, T/C","second compound 10 µM, first compound 0.00316 µM",94.8%
same,"viability, T/C","second compound 10 µM, first compound 0.01 µM",90.8%
same,"viability, T/C",[21],62.3%
same,"viability, T/C",[22],60.3%
same,"viability, T/C",[23],55%
same,"viability, T/C",[24],46.3%
CCc1cc2c(N3CCc4c(cc(Cn5ccnc5)cc4-c4cn(C)nc4C(F)(F)F)C3=O)ccnc2c(OC)n1 + COC1C(OC(N)=O)C(O)C(Oc2ccc3c(O)c(NC(=O)c4ccc(O)c(CC=C(C)C)c4)c(=O)oc3c2C)OC1(C)C,IC50,second compound 0.0316 µM,> 10000 nM
same,IC50,second compound 0.1 µM,> 10000 nM
same,IC50,second compound 0.316 µM,> 10000 nM
same,IC50,second compound 1 µM,> 10000 nM
same,IC50,second compound 3.16 µM,> 10000 nM
same,IC50,second compound 10 µM,> 10000 nM
same,"viability, T/C",[1],82.1%
same,"viability, T/C",[2],102%
same,"viability, T/C",[3],95.5%
same,"viability, T/C",[4],107%
same,"viability, T/C","second compound 0.0316 µM, first compound 3.16 µM",104%
same,"viability, T/C","second compound 0.0316 µM, first compound 10 µM",97.3%
same,"viability, T/C",[5],91.7%
same,"viability, T/C",[6],89.8%
same,"viability, T/C",[7],87.4%
same,"viability, T/C",[8],87.6%
same,"viability, T/C","second compound 0.1 µM, first compound 3.16 µM",109%
same,"viability, T/C","second compound 0.1 µM, first compound 10 µM",96.4%
same,"viability, T/C",[9],88.2%
same,"viability, T/C",[10],89.8%
same,"viability, T/C",[11],99.9%
same,"viability, T/C",[12],99%
same,"viability, T/C","second compound 0.316 µM, first compound 3.16 µM",105%
same,"viability, T/C","second compound 0.316 µM, first compound 10 µM",97%
same,"viability, T/C",[13],97.1%
same,"viability, T/C",[14],85%
same,"viability, T/C",[15],90.4%
same,"viability, T/C",[16],112%
same,"viability, T/C","second compound 1 µM, first compound 3.16 µM",101%
same,"viability, T/C","second compound 1 µM, first compound 10 µM",91.9%
same,"viability, T/C",[17],86.7%
same,"viability, T/C",[18],91.4%
same,"viability, T/C",[19],89.6%
same,"viability, T/C",[20],96%
same,"viability, T/C","second compound 3.16 µM, first compound 3.16 µM",98.4%
same,"viability, T/C","second compound 3.16 µM, first compound 10 µM",93.9%
same,"viability, T/C",[21],105%
same,"viability, T/C",[22],80.6%
same,"viability, T/C",[23],85.3%
same,"viability, T/C",[24],101%
same,"viability, T/C","second compound 10 µM, first compound 3.16 µM",102%
same,"viability, T/C","second compound 10 µM, first compound 10 µM",101%
